Data from patent US20230234967A1, “Fused Azole Heterocycles as AHR Antagonists” (Senda Biosciences, Inc., priority 2021, published 2023).

Assay: Hepatocyte Stability Assay, mouse hepatocytes
Format: in vitro ADME
Settings: cryopreserved mouse hepatocytes, read-out: Mouse hepatocyte clearance
Experimental: Example 32: Hepatocyte Stability Assay
Preparation of working solutions: 10 mM stock solutions of test compound and positive control were prepared in DMSO. In separate conical tubes, the 10 mM solution of test compound and the positive control were diluted to 100 μM by combining 198 μL of 50% acetonitrile/50% water and 2 μL of 10 mM stock.
Preparation of Hepatocytes: Incubation medium (William's E Medium supplemented with GlutaMAX) and hepatocyte thawing medium were placed in a 37° C. water bath and allowed warming for at least 15 minutes prior to use. A vial of cryopreserved hepatocytes was transferred from storage, ensuring that vials remained at cryogenic temperatures until thawing process ensued. Cells were thawed by placing the vial in a 37° C. water bath and gently shaking the vials for 2 minutes. […] Using an AO/PI Staining, cells were counted and the viable cell density was determined. Cells with poor viability (<75% viability) were determined to be not acceptable for use. […]
Data Analysis: All calculations were carried out using Microsoft Excel. Peak areas were determined from extracted ion chromatograms. In vitro half-life (t1/2) of parent compound was determined by regression analysis of the percent parent disappearance vs. time curve.
The in vitro half-life (in vitro t1/2) was determined from the slope value: […]

CLint scaled at 1 µM [mL/min/kg]	SMILES
> 50	Cc1ccccc1-c1ccc2nc(NC(=O)c3ccccn3)sc2n1 [Product 8, N-(5-(o-tolyl)thiazolo[5,4-b]pyridin-2-yl)picolinamide]
> 50	COc1ccccc1-c1ccc2nc(NC(=O)c3ccnn3C)sc2n1 [Product 25, N-(5-(2-methoxyphenyl)thiazolo[5,4-b]pyridin-2-yl)-1-methyl-1H-pyrazole-5-carboxamide]
